Results as given in patent US11013726B2 (Arbutus Biopharma Corporation, priority 2016, dated 2021).

Test system: HBsAg
Experiment: HBsAg assay
Type: cell-based, hepatitis B virus
Settings: Hepatitis B virus, HepG2.2.15, 144 h, read-out: sAg EC50, μM, HepG2.2.15 cells, day 6
Procedure, shortened: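 HepG2.2.15 cells were treated with serially diluted compounds (0.5% DMSO), with medium and compound renewed after 2-3 days. Secreted HBsAg measured at day 6 by chemiluminescence immunoassay; EC50 from dose-response curves. Viability assessed in parallel by CellTiter-Glo.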

Row | SMILES | EC50
1 | COCCCOc1cc2c(nc1OC)-c1cc(=NN)c(C(=O)NN)cn1[C@H](C(C)C)C2 [Example 152, (6S,10)-10-Hydrazinylidene-6-isopropyl-2-methoxy-3-(3-methoxypropoxy)-5H,6H-pyrido[1,2-h]1,7-naphthyridine-9-carbohydrazide] | 0.03 µM
2 | COCCOC1COc2cc3c(cc2OC1)-c1cc(=O)c(C(=O)O)cn1C(C(C)(C)C)C3 (stereo not drawn) [Example 97, 6-(Tert-butyl)-11-(2-methoxyethoxy)-2-oxo-6,7,11,12-tetrahydro-2H,10H-[1,4]dioxepino[2,3-g]pyrido[2,1-a]isoquinoline-3-carboxylic acid] | 1.4 µM
3 | COc1cc2c(nc1OC)-c1cc(=O)c(C(=O)O)cn1C(C(C)C)C2 (stereo not drawn) [Example 23, 6-Isopropyl-2,3-dimethoxy-10-oxo-5,10-dihydro-6H-pyrido[1,2-h][1,7]naphthyridine-9-carboxylic acid] | 0.019 µM
4 | CC(C)[C@@H]1COc2cc(OCC(F)(F)F)c(C3CC3)cc2-c2cc(=O)c(C(=O)O)cn21 [Example 54, (R)-2-Cyclopropyl-7-isopropyl-11-oxo-3-(2,2,2-trifluoroethoxy)-6,7-dihydro-11H-benzo[f]pyrido[1,2-d][1,4]oxazepine-10-carboxylic acid] | 0.012 µM
5 | CC(C)[C@@H]1Cc2cc(O)c(O)nc2-c2cc(=O)c(C(=O)O)cn21 [Example 164, (6S)-2,3-Dihydroxy-6-isopropyl-10-oxo-5H,6H-pyrido[1,2-h]1,7-naphthyridine-9-carboxylic acid] | 10 µM
6 | COCCCOc1cc2c(nc1OC)-c1cc(=O)c(-c3nnco3)cn1[C@H](C(C)C)C2 [Example 110, (S)-6-Isopropyl-2-methoxy-3-(3-methoxypropoxy)-9-(1,3,4-oxadiazol-2-yl)-5,6-dihydro-10-pyrido[1,2-h][1,7]naphthyridin-10-one] | 0.057 µM
7 | CC(C)[C@@H]1COc2cc(OCCCO)c(Cl)cc2-c2cc(=O)c(C(=O)O)cn21 [Example 36, (R)-2-Chloro-3-(3-hydroxypropoxy)-7-isopropyl-11-oxo-6,7-dihydro-11H-benzo[f]pyrido[1,2-d][1,4]oxazepine-10-carboxylic acid] | 0.019 µM
8 | COCCCOc1cc2c(cc1C1CC1)-c1cc(=O)c(C(=O)O)cn1[C@H](C(C)C)CO2 [Example 45, (R)-2-Cyclopropyl-7-isopropyl-3-(3-methoxypropoxy)-11-oxo-6,7-dihydro-11H-benzo[f]pyrido[1,2-d][1,4]oxazepine-10-carboxylic acid] | 0.006 µM
9 | COC1COc2cc3c(cc2OC1)-c1cc(=O)c(C(=O)O)cn1C(C(C)(C)C)C3 (stereo not drawn) [Example 102, 6-(Tert-butyl)-11-methoxy-2-oxo-6,7,11,12-tetrahydro-2H,10H-[1,4]dioxepino[2,3-g]pyrido[2,1-a]isoquinoline-3-carboxylic acid] | 0.18 µM
10 | COCCCOc1cc2c(nc1Cl)-c1cc(=O)c(C(=O)O)cn1[C@H](C(C)C)CO2 [Example 68, (R)-2-Chloro-7-isopropyl-3-(3-methoxypropoxy)-11-oxo-6,7-dihydro-11H-dipyrido[1,2-d:2′,3′-f][1,4]oxazepine-10-carboxylic acid] | 0.017 µM
11 | CCOC(=O)c1cn2c(cc1=O)-c1nc(OC)c(OCCCOC)cc1CC2(CC)CC [Example 161, Ethyl 6,6-diethyl-2-methoxy-3-(3-methoxypropoxy)-10-oxo-5,10-dihydro-6H-pyrido[1,2-h][1,7]naphthyridine-9-carboxylate] | 0.1 µM
12 | COCCCOc1cc2c(cc1Cl)-c1cc(=O)c(P(=O)(O)O)cn1C(C(C)(C)C)C2 (stereo not drawn) [Example 107, (6-(Tert-butyl)-10-chloro-9-(3-methoxypropoxy)-2-oxo-6,7-dihydro-2H-pyrido[2,1-a]isoquinolin-3-yl)phosphonic acid] | 2.5 µM
13 | COCc1nc2c(s1)CC(C(C)C)n1cc(C(=O)O)c(=O)cc1-2 (stereo not drawn) [Example 88, 5-Isopropyl-2-(methoxymethyl)-9-oxo-4,9-dihydro-5H-thiazolo[4,5-a]quinolizine-8-carboxylic acid] | 3.1 µM
14 | COCCCOc1cc2c(cc1Cl)-c1cc(=O)c(C(=O)O)cn1[C@H](C(C)C)CO2 [Example 27, (R)-2-Chloro-7-isopropyl-3-(3-methoxypropoxy)-11-oxo-6,7-dihydro-11H-benzo[f]pyrido[1,2-d][1,4]oxazepine-10-carboxylic acid] | 0.011 µM
15 | COCCN(C)c1cc2c(cc1Cl)-c1cc(=O)c(C(=O)O)cn1[C@H](C(C)C)CO2 [Example 65, (R)-2-Chloro-7-isopropyl-3-((2-methoxyethyl)(methyl)amino)-11-oxo-6,7-dihydro-11H-benzo[f]pyrido[1,2-d][1,4]oxazepine-10-carboxylic acid] | 0.27 µM
16 | COCCCOc1cc2c(nc1OC)-c1cc(=O)c(C(=O)O)cn1C(C)(C(C)(C)C)C2 (stereo not drawn) [Example 158, 6-(Tert-butyl)-2-methoxy-3-(3-methoxypropoxy)-6-methyl-10-oxo-5,10-dihydro-6H-pyrido[1,2-h][1,7]naphthyridine-9-carboxylic acid] | 0.001 µM
17 | COCCCOc1cc2c(cc1Cl)-c1cc(=O)c(-c3ccccn3)cn1C(C(C)(C)C)C2 (stereo not drawn) [Example 133, 6-(Tert-butyl)-10-chloro-9-(3-methoxypropoxy)-3-(pyridin-2-yl)-6,7-dihydro-2H-pyrido[2,1-a]isoquinolin-2-one] | 4 µM

Row | SMILES | EC50
18 | COc1nc2c(s1)CC(C(C)C)n1cc(C(=O)O)c(=O)cc1-2 (stereo not drawn) [Example 87, 5-Isopropyl-2-methoxy-9-oxo-4,9-dihydro-5H-thiazolo[4,5-a]quinolizine-8-carboxylic acid] | 3.8 µM
19 | COc1cc2c(cc1F)-c1cc(=O)c(C(=O)O)cn1C(C(C)C)CO2 (stereo not drawn) [Example 15, 2-Fluoro-7-isopropyl-3-methoxy-11-oxo-6,7-dihydro-11H-benzo[f]pyrido[1,2-d][1,4]oxazepine-10-carboxylic acid] | 0.9 µM
20 | CCC1(CC)Cc2cc(OCCCOC)c(OC)nc2-c2cc(=O)c(C(=O)O)cn21 [Example 162, 6,6-Diethyl-2-methoxy-3-(3-methoxypropoxy)-10-oxo-5,10-dihydro-6H-pyrido[1,2-h][1,7]naphthyridine-9-carboxylic acid] | 0.014 µM
21 | COCCCN(C)c1cc2c(cc1Cl)-c1cc(=O)c(C(=O)O)cn1[C@H](C(C)C)CO2 [Example 63, (R)-2-Chloro-7-isopropyl-3-((3-methoxypropyl)(methyl)amino)-11-oxo-6,7-dihydro-11H-benzo[f]pyrido[1,2-d][1,4]oxazepine-10-carboxylic acid] | 0.03 µM
22 | COCCCOc1cc2c(cc1Cl)-c1cc(=O)ccn1[C@H](C(C)C)CO2 [Example 136, (R)-2-Chloro-7-isopropyl-3-(3-methoxypropoxy)-6,7-dihydro-11H-benzo[f]pyrido[1,2-d][1,4]oxazepin-11-one] | 0.57 µM
23 | CC(C)[C@@H]1COc2cc(OCC3CC3)c(Cl)cc2-c2cc(=O)c(C(=O)O)cn21 [Example 35, (R)-2-Chloro-3-(cyclopropylmethoxy)-7-isopropyl-11-oxo-6,7-dihydro-11H-benzo[f]pyrido[1,2-d][1,4]oxazepine-10-carboxylic acid] | 0.033 µM
24 | COCCCOc1cc2c(nc1OC)-c1cc(=O)c(-c3ncn[nH]3)cn1[C@H](C(C)C)C2 [Example 116, (S)-6-Isopropyl-2-methoxy-3-(3-methoxypropoxy)-9-(1H-1,2,4-triazol-5-yl)-5,6-dihydro-10H-pyrido[1,2-h][1,7]naphthyridin-10-one] | 0.009 µM
25 | COc1ccc2c(c1)OCC(C(C)C)n1cc(C(=O)O)c(=O)cc1-2 (stereo not drawn) [Example 16, 7-Isopropyl-3-methoxy-11-oxo-6,7-dihydro-11H-benzo[f]pyrido[1,2-d][1,4]oxazepine-10-carboxylic acid] | 3.5 µM
26 | Cc1cc2c(cc1OCC(C)C)OC[C@@H](C(C)C)n1cc(C(=O)O)c(=O)cc1-2 [Example 51, (R)-3-Isobutoxy-7-isopropyl-2-methyl-11-oxo-6,7-dihydro-11H-benzo[f]pyrido[1,2-d][1,4]oxazepine-10-carboxylic acid] | 0.015 µM
27 | COCCCOc1cc2c(cc1OC)-c1cc(=NOC)c(C(=O)O)cn1C(C(C)C)C2 (stereo not drawn) [Example 149] | 7.4 µM
28 | COCCCOc1cc2c(nc1OC)-c1cc(=O)c(-c3n[nH]c(=S)[nH]3)cn1[C@H](C(C)C)C2 [Example 109, (S)-6-Isopropyl-2-methoxy-3-(3-methoxypropoxy)-9-(5-thioxo-4,5-dihydro-1H-1,2,4-triazol-3-yl)-5,6-dihydro-10H-pyrido[1,2-h][1,7]naphthyridin-10-one] | 0.029 µM
29 | COCCCOc1cc2c(cc1Cl)-c1cc(=O)c(NS(=O)(=O)CC(F)(F)F)cn1C(C(C)(C)C)C2 (stereo not drawn) [Example 127, N-[6-Tert-butyl-10-chloro-9-(3-methoxypropoxy)-2-oxo-6H,7H-pyrido[2,1-a]isoquinolin-3-yl]-2,2,2-trifluoroethanesulfonamide] | 15 µM
30 | COCCCOc1cc2c(cc1Cl)-c1cc(=O)c(-c3ncccn3)cn1[C@H](C(C)C)CO2 [Example 135, (R)-2-Chloro-7-isopropyl-3-(3-methoxypropoxy)-10-(pyrimidin-2-yl)-6,7-dihydro-11H-benzo[f]pyrido[1,2-d][1,4]oxazepin-11-one] | 2 µM
31 | CCC1(C(C)C)Cc2cc(OCCCOC)c(OC)nc2-c2cc(=O)c(C(=O)O)cn21 (stereo not drawn) [Example 163, 6-Ethyl-6-isopropyl-2-methoxy-3-(3-methoxypropoxy)-10-oxo-5,10-dihydro-6H-pyrido[1,2-h][1,7]naphthyridine-9-carboxylic acid] | 0.13 µM
32 | Cc1c2n(cc(C(=O)O)c1=O)C(C(C)(C)C)Cc1cc3c(cc1-2)OCCCO3 (stereo not drawn) [Example 100, 6-(Tert-butyl)-1-methyl-2-oxo-6,7,11,12-tetrahydro-2H,10H-[1,4]dioxepino[2,3-g]pyrido[2,1-a]isoquinoline-3-carboxylic acid] | 10 µM
33 | COCCCOc1cc2c(cc1Cl)-c1cc(=O)c(NC(=O)OCc3ccccn3)cn1C(C(C)(C)C)C2 (stereo not drawn) [Example 123, Pyridin-2-ylmethyl (6-(tert-butyl)-10-chloro-9-(3-methoxypropoxy)-2-oxo-6,7-dihydro-2H-pyrido[2,1-a]isoquinolin-3-yl)carbamate] | 2.4 µM
